Experimental findings from patent US6831196B2, “Urokinase inhibitors” (Curacyte AG, priority 2000, dated 2004) are described below.

One may read the Ki as a measure of affinity in units of concentration, obtained from inhibition or displacement. High values mean weaker binding, low ones tighter binding.

Counter-ions that a name gives are not always drawn.

This experiment addresses sc-urokinase (Homo sapiens, UniProt P00749). Kind of experiment: Inhibiting urokinase: chromogenic substrate Bz-βAla-Gly-Arg-pNA, Ki by Dixon. The settings on record: 25° C., pH 8.0, mean of at least three determinations. The format is biochemical. From the text: Inhibiting urokinase with selected compounds in which Y=amidino
Determining the inhibitory effect:
The Ki values are the mean of at least three determinations.
As to `CC(C)COC(=O)OC[C@@H](NS(=O)(=O)Cc1ccccc1)C(=O)NCC(=O)NCc1ccc(C(=N)N)cc1` [Bz—SO2, D, CH2—O—COO-iBu, H, CH2, 4, Benzylsulfonyl-D-Ser(COO-isobutyl)-Gly-4-amidino-benzylamide×HCl], the Ki was 0.5 µM.
In the case of `N=C(N)c1ccc(CNC(=O)CNC(=O)[C@H](N)CO)cc1` [H, D, CH2—OH, H, CH2, 4] it was 12 µM.
In the case of `CC(C)(C)OC(=O)N[C@H](COCc1ccccc1)C(=O)NCC(=O)NCc1cccc(C(=N)N)c1` [Boc, D, CH2—O—Bz, H, CH2, 3], the Ki is > 1000 µM.
In the case of `N=C(N)c1cccc(CNC(=O)CNC(=O)[C@H](N)COCc2ccccc2)c1` [H, D, CH2—O—Bz, H, CH2, 3], the Ki is > 1000 µM.
Compound `N=C(N)c1ccc(CNC(=O)CNC(=O)[C@@H](COCc2ccccc2)NS(=O)(=O)Cc2ccccc2)cc1` [Bz—SO2, D, CH2—O—Bz, H, CH2, 4, Benzylsulfonyl-D-Ser(Bz)-Gly-4-amidinobenzyl-amide×TFA] came in with a Ki of 0.84 µM.
`N=C(N)c1ccc(CNC(=O)CNC(=O)[C@@H](N)CO)cc1` [H, L, CH2—OH, H, CH2, 4] showed a Ki of 21 µM. Against the preceding compound, the Ki is about 25-fold higher.
With `N=C(N)c1cccc(CNC(=O)CNC(=O)[C@@H](COCc2ccccc2)NS(=O)(=O)Cc2ccccc2)c1` [Bz—SO2, D, CH2—O—Bz, H, CH2, 3], the Ki is > 1000 µM.
For `CC(C)(C)OC(=O)N[C@@H](CO)C(=O)NCC(=O)NCc1ccc(C(=N)N)cc1` [Boc, L, CH2—OH, H, CH2, 4], the inhibition constant Ki is 23 µM.
For the compound `COC(=O)OC[C@@H](NS(=O)(=O)Cc1ccccc1)C(=O)NCC(=O)NCc1ccc(C(=N)N)cc1` [Bz—SO2, D, CH2—O—COO—CH3, H, CH2, 4], the affinity corresponds to a Ki of 0.39 µM.
Next, `N=C(N)c1ccc(CNC(=O)CNC(=O)[C@@H](CO)NS(=O)(=O)CC2CCCCC2)cc1` [CMe—SO2, D, CH2—OH, H, CH2, 4]: 0.048 µM.
